Laboratory results as given in US20210161882A1, “DEPOT ADMINISTRATION OF ILOPERIDONE” (Vanda Pharmaceuticals Inc., priority 2018, published 2021).

Test: Crystalline iloperidone particle size determination (Malvern Mastersizer 2000 laser light scattering)
Format: physicochemical
Conditions: wet dispersion in saturated 0.1% Tween 80, average of n=2 trials, each the average of 5 acquisitions
Experimental: Crystalline iloperidone particle sizes are determined in accordance with the following example. The Malvern Mastersizer 2000 (Malvern Instruments, Ltd., Malvern, UK) laser light scattering particle size analyzer and Hydro 2000 (Malvern Instruments, Ltd., Malvern, UK) wet sample dispersion unit are turned on, allowing time for the laser to warm up, e.g., for about 30 minutes. The PC is turned on, Mastersizer 2000 software is opened, and a file is created for storing results. An instrument verification check is performed according to SGS SOP EQP-525-10 Operation Preventative Maintenance and Performance Verification of the Mastersizer 2000. A new file for results storage is created, and the device is configured for Existing SOP for iloperidone. The parameters listed under the SOP are verified to confirm accuracy, namely: sample material name, iloperidone depot for injection; refractive index, 1.53, absorption, 0.1; dispersant medium, saturate 0.1% Tween 80 (Sigma Aldrich Co., St. Louis, Mo.) with 0.1% w/v sample; refractive index, 1.33; result model, general purpose; particle shape, irregular; sensitivity, normal; pump speed, 2000 RPM; sample measurement time, 12 seconds (12,000 snaps); background measurement time, 12 seconds (12,000 snaps); size range, 0.020 to 2000.000 μm; aliquot per SOP, 1; number of measurement cycles, 5 (report average); obscuration limits, 10-20%. Verification is made that the outlet tube of the dispersion unit is into the waste tank, and the tank is not full; the waste container is emptied on an as needed basis. […]
Samples are prepared by saturating 0.1% Tween 80 (Sigma-Aldrich Co., St. Louis, Mo.) polysorbate 80 with 0.1% w/v crystalline iloperidone. […] The SOP is started with the parameters for the sample so that the instrument is ready to perform measurements as soon as the sample is introduced to the Hydro 2000 unit. […] Each sample is measured twice (out of one preparation).
The resulting histogram is then evaluated. […]

Compound: COc1cc(C(C)=O)ccc1OCCCN1CCC(c2noc3cc(F)ccc23)CC1 [crystalline iloperidone, 1-[4-[3-[4-(6-flouro-1,2-benzisoxazol-3-yl)-1-piperidinyl]propoxy]-3-methoxyphenyl]ethanone]
- average Dv10: 14-50 μm
- average Dv50: 91-118 μm
- average Dv90: 188-241 μm
